Read-outs that look alike come from different tables or passages of the source.

Consider eleven molecules from paper PMC9391460, “Biophysical and pharmacokinetic characterization of a small-molecule inhibitor of RUNX1/ETO tetramerization with anti-leukemic effects” (Scientific Reports, 2022).

For series [1] the following is noted: Peff in cm sec-1 from PAMPA assays; ref Bennion, Be [13]; cited from earlier work. For orientation: In PAMPA a lipid-coated filter parts donor from acceptor wells.
The next series has as its target T1, NHR2 (Homo sapiens, UniProt Q06455).
T1 construct: The N-terminal residues from Q485 to D495, T519, and the C-terminal residues from Y544 to K552; 6His (N, cleaved yes); SUMO (N, cleaved yes); made in house; host or cells: E. coli Rosetta (DE3)pLysS
T1 sequence (Q06455 337-404): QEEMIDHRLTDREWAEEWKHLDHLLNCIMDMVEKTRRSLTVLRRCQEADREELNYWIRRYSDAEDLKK
Briefly: Isothermal titration calorimetry (ITC) of HEB fragment with NHR2. The settings on record: 25°C, one-site binding model. As for the experimental part:
The NHR2 domain was overexpressed and purified, and the resulting material yielded homogeneous, monodisperse species in solution. The sample was homogenous as analyzed by size exclusion chromatography (SEC) (Fig. 2A), SDS-PAGE (Fig. S1), and dynamic light scattering (DLS) (Fig. S3). The oligomeric state of purified NHR2 was assessed by analytical ultracentrifugation (AUC) (Fig. S4). The sedimentation profiles of NHR2 show a single major species with a sedimentation coefficient (S value) of 3.07, which corresponds to the molecular weight of 37.3 kDa. This value is in agreement with the calculated molecular weight of an NHR2 tetramer of 34.2 kDa. […] The weight percent contribution of the tetramer in 35 µM of NHR2 is 94% as obtained by integration of the continuous sedimentation coefficient distribution function. To check the function of the purified NHR2, we performed isothermal titration calorimetry (ITC) with the HEB fragment of E proteins (HEB (176–200)).
Figure S5. NHR2 interaction with E proteins (HEB (176-200)) by isothermal titration calorimetry (ITC). Titration of
600 μM HEB (176-200) peptide into a 53 μM NHR2 solution and resulting heat change are shown in the upper panel. The
ITC measurements were performed at 25°C using a MicroCal ITC200 (Malvern Instruments Ltd., United Kingdom)
calorimeter. Buffer conditions were 50 mM sodium phosphate, 50 mM sodium chloride pH 8. […]

A short description of the next series: Plasma stability. It counts as in vitro ADME. The settings on record: mouse plasma, 0–240 min, 37 °C. As for the experimental part: (§1) For plasma stability assay, working solutions of the test and reference item were diluted f r o m the stock solutions in the appropriate solvent (Table S3) to reach working solutions of 50-fold […]
(§2) and propantheline (reference item for low plasma stability) were tested at a final concentration of 10 µM. The final solvent content in the test item incubations was 0.5% DMSO, while in the propantheline incubations, no organic solvent was added.
(§3) For chemical stability assay, working solutions of the test and reference items were diluted from the stock solutions in the appropriate solvent (Table S3) to reach working solutions of 50- […]
(§4) item and Omeprazole (reference item for low chemical stability) were tested at a final concentration of 10 µM. The final solvent content in the test item incubations was 0.5% DMSO.
(§5) For the hepatic stability assay, working solutions of the test and reference items were diluted from the stock solutions in the appropriate solvent (Table S3) to reach working solutions of a 200-fold higher strength than the intended final concentrations. In a second step, working solutions were further diluted in incubation medium to reach 10-fold concentrated starting

Series [2] is described as follows: pKa value determination by 1H NMR. The series is classed as physicochemical. As for the experimental part:
Sodium 2,2-dimethyl-2-silapentane-5-sulfonate (DSS) was used for chemical shift referencing and calibrated to a zero ppm value in each case. […] Then the pKa was calculated by using the chemical shifts of the protonated and unprotonated forms at the respective pH and fitting to the Henderson-Hasselbalch equation[25] (Fig. 6B).
1D ^1H-NMR experiments were performed using 256 scans for each sample. ^1H chemical shift values were extracted for the reporter protons using TopSpin 3.2 (Bruker BioSpin). The pKa was calculated using the chemical shifts of the protonated and unprotonated forms and their corresponding mole fraction values applying the Henderson-Hasselbalch equation as explained by Gift et al.[25]. The data were processed and plotted with the Origin software (OriginLab Corporation, USA).

A short description of series [3]: Chemical stability in PBS. The settings on record: pH 7.4, 0–4 h. The series is classed as physicochemical. As for the experimental part: as §1, §2, §3, §4, §5
The nature of series [4]: Kinetic solubility in PBS. It counts as physicochemical. The settings on record: kinetic from dmso stock.
Experimental: in a cut-off concentration of 200 µM and a final solvent content of 1% DMSO. The test
solutions (triplicates) were put on a filter plate and were shaken protected from light at 300 rpm
at room temperature for 1.5 hours, followed by centrifugation at 500 x g for 3 minutes. 200 µl
of the filtrate were mixed with 100 µl ACN containing the ISTD as described in Sample
A further series in a line: Hepatocyte stability. It counts as in vitro ADME. The settings on record: mouse hepatocytes.
The next series concerns the target T2, HEB 176-200 (Homo sapiens, UniProt Q99081).
T2 chain: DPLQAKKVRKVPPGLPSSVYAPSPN
Briefly: ITC.

The series “MST” concerns the molecule itself. Briefly: MST.

Experimental for Hepatocyte stability: Working solutions of the test and reference items were diluted from the stock solutions in the
incubation medium to reach 10-fold concentrated starting solutions. The final test
concentrations were 5 µM with a solvent content of 0.5% DMSO or 1% ACN in all test item
and reference item incubations, respectively. 7.44 compound was dissolved 20 mM in DMSO
Primary hepatocytes from CD-1 mice (pooled, male) were thawed
according to the instructions of the manufacturer. The incubation samples were composed of
0.2 x 10^6 cells/well in 225 µL incubation medium and 25 µL test item solution (50 µM in
incubation medium), resulting in a final start concentration of 5 µM. Samples were taken from
the suspension cultures after 0, 15, 30, 60, and 120 minutes of incubation and processed for LC-
MS analysis as described in Sample preparation section.
Positive control incubations were performed using 7-ethoxycoumarin as substrate. Metabolic
turnover rates were measured at 0 and 120 minutes of incubation. Aliquotes were taken from
the incubations for sample preparation and analysis. Hepatocyte enzyme activity was assessed
in terms of 7-ethoxycoumarin turnover, i.e., loss of 7-ethoxycoumarin.
Negative controls were performed to observe non-metabolic degradation processes; i.e. test
Negative control incubations were performed
in line with all experiments using incubation medium with test and reference item in the absence
of hepatocytes. Samples were taken from the incubations at 0 and 120 minutes and processed
as described below (in Sample preparation section).

As to `NC(=O)c1cc[n+](COC[n+]2ccccc2/C=N/O)cc1` [asoxime (HI-6), asoxime], the “log Peff/PAMPA P0-1” value in [1] was -11.16. As to `CC(=O)[C@H]1CC[C@H]2[C@@H]3CCC4=CC(=O)CC[C@]4(C)[C@H]3CC[C@]12C` [progesterone], in series [1], the “log Peff/PAMPA P0-1” value is -4.94. As to `CN(C)CCCN1c2ccccc2Sc2ccc(Cl)cc21` [chlorpromazine], the “log Peff/PAMPA P0-1” value in series [1] was -5.26.

Consider “HEB (176–200): HEB fragment of E proteins, known to interact with the NHR2 domain (DPLQAKKVRKVPPGLPSSVYAPSPN; UniProt Q99081 176-200, looked up, fragment)”, for which the “binding enthalpy ΔH” value in the series with NHR2 was -15 ± 6 kcal/mol. The Kd with NHR2 (read-out: dissociation constant KD) was determined as 30 ± 4 µM. As to `CN(C)CCCN1c2ccccc2Sc2ccccc21` [promazine], in series [1], the “log Peff/PAMPA P0-1” value was -4.88.

Turning to `Cn1c(=O)c2[nH]cnc2n(C)c1=O` [theophylline], the “log Peff/PAMPA P0-1” value in [1] is recorded as -5.91. On to `C[n+]1ccccc1/C=N/O` [pralidoxime (P2-PAM), pralidoxime], for which the “log Peff/PAMPA P0-1” value in series [1] was -7.52. Consider `O/N=C/c1cc[n+](C[n+]2ccc(/C=N/O)cc2)cc1` [methoxime (MMB4), methoxime], for which the “log Peff/PAMPA P0-1” value in [1] is recorded as -9.25. For `O=C(CC(C(=O)O)c1ccc2c(c1)OCO2)c1ccc2c(c1)OCO2` (stereo not drawn) [7.44], in “Plasma stability”, the Plasma stability result is recorded as “No degradation”. The pKa in [2] (sodium phosphate buffer with NaCl and DMSO-d6, reporter proton H2, read-out: pKa of the carboxylic group) was 3.99 ± 0.01; in [2] (sodium phosphate buffer with NaCl and DMSO-d6, reporter proton H3, read-out: pKa of the carboxylic group) it was 3.93 ± 0.01; in series [2] (sodium phosphate buffer with NaCl and DMSO-d6, summary value, read-out: pKa), about 3.9. For the same molecule, the “Chemical stability in PBS” value in series [3] is given as “No degradation”. In addition, the kinetic solubility at […] in [4] (99% PBS, 1% DMSO, pH 7.4, aqueous buffer) was found to be 177 ± 8 µM; in series [4] (PBS with 1% DMSO, aqueous buffer, PBS, pH 7.4, read-out: Kinetic solubility) it was 60 µg/mL. Besides, in the series “Hepatocyte stability” (male, CD-1, primary hepatocytes (pooled, suspension), read-out: Hepatocyte stability, intrinsic clearance rate (CLint)), the hepatocyte CLint at 5 µM came to 2.5 µL/min/1e6 cells. Besides, in “Hepatocyte stability” (male, CD-1, primary hepatocytes (pooled, suspension), read-out: half-life time), the half-life at 5 µM was over 2 h. The same molecule gave a compound remaining in “Hepatocyte stability” (after 120 min) of 73.8%.

B1: NHR2 domain of RUNX1/ETO 485-552 (protein)
chain: KMERTVAEAKRQAAEDALAVINQQEDSSESCWNCGRKASETCSGCNTARYCGSFCQHKDWEKHHHICG
In the series with HEB 176-200, B1 returned a Kd of 30 µM.

B2: NHR2 domain of RUNX1/ETO (dimer) 485-552 (protein)
chain: KMERTVAEAKRQAAEDALAVINQQEDSSESCWNCGRKASETCSGCNTARYCGSFCQHKDWEKHHHICG
In the series “MST”, B2 gave a dissociation constant Kd of 1.6 µM.

Usually Kd stands for the constant that tells how readily two partners part at equilibrium. Usually kinetic solubility stands for solubility judged after dilution from a stock solution rather than from solid. A word on the hepatocyte CLint: it is a measure of how fast metabolising enzymes remove a compound, apart from limits set by blood flow. As a reminder, the half-life is how long it takes for the measured level to halve.
